Where two headings read alike, the source gives them in different places.
Key:
[1] = tested on: core clock gene mRNAs in mouse liver; experiment: Core clock gene mRNAs in liver after a single dose at peak or nadir of Cry1 expression; format: in vivo; conditions: single dose 50 mg/kg, liver 7.5 hours later
Experimental: For compounds that interact directly with the core clock mechanism, the time of dosing may be critical for maximizing their effects. […] The former (ZTO) is coincident with the peak of Cry1 and Bmal1 protein in mouse liver and the latter (ZT10) corresponds to the approximate nadir of Cry1 and Bmal1. Liver tissue was taken 7.5 hours later for each, and the samples were examined for core clock gene mRNAs by RT-qPCR.

[2] = Pharmacokinetic analysis in ICR mice (plasma and liver, LC/MS/MS); format: in vivo, mouse; conditions: 50 mg/kg P.O.; for Cmax / Tmax / half-life / MRT last: male, ICR, po; for Cmax: 50 mg/kg; for half-life: read-out: Elimination T1/2 (converted); for MRT last: read-out: MRT (0-last, hr)
Experimental: Male ICR mice (weighing 30-40 g, Charles River Laboratories) were used for the experiment with n=3 mice for each experimental group (27 mice total for the study). […] Blood and liver tissue were collected at the following time points after administration: 15, 30, 60, 90 minutes, 3, 6, 12 and 24 hours. A control group of animals (TO) was also sampled. Animals were euthanized with CO2 and the blood collected from the heart using cardiac puncture, transferred to an EDTA tube, and then centrifuged at 5400 rpm for 5 minutes at 4° C. The resultant plasma was frozen using dry ice and then stored at −80° C. until ready for assay. Liver tissue was removed from each animal, 0.5 g was collected in an eppendorff, frozen and submitted for pharmacokinetic measurement. […] Raw data was analyzed using WinNonLin for PK parameters (Cmax, Tmax, elimination t^1/2, MRT (mean residence time), AUC (area under the curve)−(0-last and % extrapolated).

C57/Bl6J DIO mice = experiment: Increasing dosages of Compound 72 for 7 days in diet-induced obesity mouse model; format: in vivo
Text: Male C57/Bl6J DIO mice were obtained from The Jackson Laboratory (Sacramento, Calif.). […] Animals were accustomed to these conditions for at least 2 weeks before experimentation and used at approximately 24 weeks of age.
Significance was accepted when p<0.05.
Male C57/Bl6J DIO mice were obtained from The Jackson Laboratory (Sacramento, Calif.). […] Animals were accustomed to these conditions for at least 2 weeks before experimentation and used at approximately 26 weeks of age.

Cmax ([2]; mouse, liver, mouse liver, read-out: Cmax): 7.89 µg/mL | Cmax ([2]; mouse, liver, mouse, unbound, read-out: Cmax UB (liver)): 0.288 µg/mL | Cmax ([2]; mouse, plasma, mouse plasma, read-out: Cmax): 1.15 µg/mL | Cmax ([2]; mouse, plasma, mouse, read-out: Cmax (plasma)): 1.15 µg/mL | Cmax ([2]; mouse, plasma, mouse, unbound, read-out: Cmax UB (plasma)): 0.0419 µg/mL | Tmax ([2]; mouse liver): 0.25 to 0.5 h | half-life ([2]; mouse liver): 3.4 h | MRT last ([2]; mouse liver): 4.74 h | Tmax ([2]; mouse plasma): 0.25 to 0.5 h | half-life ([2]; mouse plasma): 3.13 h | MRT last ([2]; mouse plasma): 5.3 h | % AUC extrapolated ([2]; mouse liver): 0.85% | AUC (total; ng · hr/mL) ([2]; mouse liver): 17.961 µg·h/mL | % AUC extrapolated ([2]; mouse plasma): 1.74% | AUC (total; ng · hr/mL) ([2]; mouse plasma): 4.236 µg·h/mL | Cmax (liver) ([2]; mouse): 7.89 µg/mL | Total Liver AUC (0-last) ([2]; mouse): 17822 | Unbound Liver AUC (0-last) ([2]; mouse): 650.5 | Unbound Plasma AUC (0-last) ([2]; mouse): 151.5
SMILES: O=C1NCCN1CC(O)Cn1c2ccc(F)cc2c2cc(F)ccc21 (centres unmarked) [Compound 72, 1-(3-(3,6-difluoro-9H-carbazol-9-yl)-2-hydroxypropyl)imidazolidin-2-one]
impact on clock mRNAs, dosing at peak (ZT0) vs nadir (ZT10) [1]: greater relative impact on the clock mRNAs at the peak compared to the nadir | fasting blood glucose (C57/Bl6J DIO mice; 10 mg/kg QD PO 7 days): 206.8 ± 8.36 mg/dL | glucose AUC from OGTT (C57/Bl6J DIO mice; 10 mg/kg QD PO 7 days): 22563+/−1224 units | fasting blood glucose (C57/Bl6J DIO mice; 30 mg/kg QD PO 7 days): 197.5 ± 12.06 mg/dL | glucose AUC from OGTT (C57/Bl6J DIO mice; 30 mg/kg QD PO 7 days): 19033+/−1934 units | fasting blood glucose (C57/Bl6J DIO mice; 100 mg/kg QD PO 7 days): 176.3 ± 7.83 mg/dL | glucose AUC from OGTT (C57/Bl6J DIO mice; 100 mg/kg QD PO 7 days): 19502+/−2404 units

Source: patent US10214507B2, “Carbazole-containing amides, carbamates, and ureas as cryptochrome modulators” (Reset Therapeutics, Inc., priority 2014, dated 2019)
